Calls of active or inactive are those of the source. How the calls were made is not given here.
System: CCRIS mutagenicity, Ames/micronucleus/aberration tests
Test: CCRIS mutagenicity studies

Measured: mutagenic call

C#C[C@]1(O)CC[C@H]2[C@@H]3CCc4cc(O)ccc4[C@H]3CC[C@@]21C
inactive: Test System: AMES SALMONELLA TYPHIMURIUM, Strain/Indicator: TA100, Metabolic Activation: RAT, LIVER, S-9, AROCLOR 1254 (30%), Method: PREINCUBATION inactive; negative | Test System: AMES SALMONELLA TYPHIMURIUM, Strain/Indicator: TA100, Metabolic Activation: RAT, LIVER, S-9, AROCLOR 1254, Method: STANDARD PLATE inactive; negative | Test System: AMES SALMONELLA TYPHIMURIUM, Strain/Indicator: TA100, Metabolic Activation: S-9 inactive; negative | Test System: AMES SALMONELLA TYPHIMURIUM, Strain/Indicator: TA1535, Metabolic Activation: HAMSTER, LIVER, S-9, AROCLOR 1254 (10 OR 30%), Method: PREINCUBATION inactive; negative | Test System: AMES SALMONELLA TYPHIMURIUM, Strain/Indicator: TA1535, Metabolic Activation: MOUSE, LIVER, S-9, Method: STANDARD PLATE inactive; negative | Test System: AMES SALMONELLA TYPHIMURIUM, Strain/Indicator: TA1535, Metabolic Activation: NONE inactive; negative | Test System: AMES SALMONELLA TYPHIMURIUM, Strain/Indicator: TA1535, Metabolic Activation: NONE, Method: PREINCUBATION inactive; negative | Test System: AMES SALMONELLA TYPHIMURIUM, Strain/Indicator: TA1535, Metabolic Activation: NONE, Method: STANDARD PLATE inactive; negative | Test System: AMES SALMONELLA TYPHIMURIUM, Strain/Indicator: TA1535, Metabolic Activation: RAT, LIVER, S-9, AROCLOR 1254 (10%), Method: PREINCUBATION inactive; negative | Test System: AMES SALMONELLA TYPHIMURIUM, Strain/Indicator: TA1535, Metabolic Activation: RAT, LIVER, S-9, AROCLOR 1254 (30%), Method: PREINCUBATION inactive; negative | Test System: AMES SALMONELLA TYPHIMURIUM, Strain/Indicator: TA1535, Metabolic Activation: RAT, LIVER, S-9, AROCLOR 1254, Method: STANDARD PLATE inactive; negative | Test System: AMES SALMONELLA TYPHIMURIUM, Strain/Indicator: TA1535, Metabolic Activation: S-9 inactive; negative | Test System: AMES SALMONELLA TYPHIMURIUM, Strain/Indicator: TA1537, Metabolic Activation: MOUSE, LIVER, S-9, Method: STANDARD PLATE inactive; negative | Test System: AMES SALMONELLA TYPHIMURIUM, Strain/Indicator: TA1537, Metabolic Activation: NONE inactive; negative | Test System: AMES SALMONELLA TYPHIMURIUM, Strain/Indicator: TA1537, Metabolic Activation: NONE, Method: STANDARD PLATE inactive; negative | Test System: AMES SALMONELLA TYPHIMURIUM, Strain/Indicator: TA1537, Metabolic Activation: RAT, LIVER, S-9, AROCLOR 1254, Method: STANDARD PLATE inactive; negative | Test System: AMES SALMONELLA TYPHIMURIUM, Strain/Indicator: TA1537, Metabolic Activation: S-9 inactive; negative | Test System: AMES SALMONELLA TYPHIMURIUM, Strain/Indicator: TA1538, Metabolic Activation: MOUSE, LIVER, S-9, Method: STANDARD PLATE inactive; negative | Test System: AMES SALMONELLA TYPHIMURIUM, Strain/Indicator: TA1538, Metabolic Activation: NONE, Method: STANDARD PLATE inactive; negative | Test System: AMES SALMONELLA TYPHIMURIUM, Strain/Indicator: TA1538, Metabolic Activation: RAT, LIVER, S-9, AROCLOR 1254, Method: STANDARD PLATE inactive; negative | Test System: E. COLI, Strain/Indicator: WP2 UVRA, Metabolic Activation: HAMSTER, LIVER, S-9, AROCLOR 1254, Method: STANDARD PLATE inactive; negative | Test System: E. COLI, Strain/Indicator: WP2 UVRA, Metabolic Activation: HAMSTER, LIVER, S-9, Method: STANDARD PLATE inactive; negative | Test System: E. COLI, Strain/Indicator: WP2 UVRA, Metabolic Activation: MOUSE, LIVER, S-9, AROCLOR 1254, Method: STANDARD PLATE inactive; negative | Test System: E. COLI, Strain/Indicator: WP2 UVRA, Metabolic Activation: MOUSE, LIVER, S-9, Method: STANDARD PLATE inactive; negative | Test System: E. COLI, Strain/Indicator: WP2 UVRA, Metabolic Activation: NONE inactive; negative | Test System: E. COLI, Strain/Indicator: WP2 UVRA, Metabolic Activation: NONE, Method: STANDARD PLATE inactive; negative | Test System: E. COLI, Strain/Indicator: WP2 UVRA, Metabolic Activation: RAT, LIVER, S-9, AROCLOR 1254, Method: STANDARD PLATE inactive; negative | Test System: E. COLI, Strain/Indicator: WP2 UVRA, Metabolic Activation: RAT, LIVER, S-9, Method: STANDARD PLATE inactive; negative | Test System: E. COLI, Strain/Indicator: WP2 UVRA, Metabolic Activation: S-9 inactive; negative

Reference: PubChem BioAssay AID1259407 (Chemical Carcinogenesis Research Information System (CCRIS), 2018)
